Assay results reported in patent publication US9096593B2, “Compounds and methods for kinase modulation, and indications therefor” (Plexxikon Inc., priority 2009, dated 2015).
Read-outs that look alike come from different tables or passages of the source.

Assays:
BCR-FMS/BaF3 cells = BCR-FMS/BaF3 cells (Homo sapiens, UniProt P07333); assay: BCR-FMS/BaF3 cell proliferation assay (ATPlite); assay type: cell-based
Summary of the method: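 BCR-FMS/BaF3 cells at 2×10^5 cells/mL in growth media with 1 mg/mL G418, without WEHI/IL-3, treated with 8-point 1:3 compound titrations (top 10 μM final) for 3 days at 37 °C, 5% CO2. Cell number by ATPlite luminescence; IC50 from signal versus concentration.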

BCR-KIT/BaF3 cells = BCR-KIT/BaF3 cells (Homo sapiens, UniProt P10721); assay: BCR-KIT/BaF3 cell proliferation assay (ATPlite); assay type: cell-based; settings: read-out: BCR/BaF3 (IC50 μM) Kit
Chain of BCR-KIT/BaF3 cells (P10721 26-976 limits assumed, change not shown): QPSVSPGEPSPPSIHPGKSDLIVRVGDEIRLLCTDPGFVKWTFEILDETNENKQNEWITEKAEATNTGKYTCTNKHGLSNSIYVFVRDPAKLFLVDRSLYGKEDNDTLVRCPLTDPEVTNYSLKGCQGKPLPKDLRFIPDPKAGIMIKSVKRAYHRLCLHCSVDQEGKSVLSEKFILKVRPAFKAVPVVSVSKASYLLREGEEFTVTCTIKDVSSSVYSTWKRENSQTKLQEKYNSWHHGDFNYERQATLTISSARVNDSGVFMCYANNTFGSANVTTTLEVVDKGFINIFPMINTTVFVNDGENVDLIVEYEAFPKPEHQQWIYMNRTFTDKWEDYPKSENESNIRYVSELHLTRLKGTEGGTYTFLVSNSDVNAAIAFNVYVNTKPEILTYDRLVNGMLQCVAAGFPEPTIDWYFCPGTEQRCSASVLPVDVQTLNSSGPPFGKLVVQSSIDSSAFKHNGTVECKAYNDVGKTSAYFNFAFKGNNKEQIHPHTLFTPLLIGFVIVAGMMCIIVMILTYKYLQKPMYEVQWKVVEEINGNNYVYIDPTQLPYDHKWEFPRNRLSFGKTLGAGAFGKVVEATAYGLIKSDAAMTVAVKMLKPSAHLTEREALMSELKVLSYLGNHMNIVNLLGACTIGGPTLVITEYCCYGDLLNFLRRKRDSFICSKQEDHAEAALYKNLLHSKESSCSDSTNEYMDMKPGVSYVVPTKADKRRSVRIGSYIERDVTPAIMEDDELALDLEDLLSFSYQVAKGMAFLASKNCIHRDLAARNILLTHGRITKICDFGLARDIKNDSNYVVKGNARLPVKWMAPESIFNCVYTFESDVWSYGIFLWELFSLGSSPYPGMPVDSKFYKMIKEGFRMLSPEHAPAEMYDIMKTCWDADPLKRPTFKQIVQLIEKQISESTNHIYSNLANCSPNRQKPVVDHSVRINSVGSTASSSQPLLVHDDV
Summary of the method: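 BCR-KIT/BaF3 cells plated at 10,000/well in G418-containing medium without IL-3/WEHI; MV-4-11 at 25,000/well in medium with 10% FBS. Compound given as 8-point 1:3 titration, top 10 μM final, 3 days at 37 °C. Viability read as ATPlite luminescence; IC50 from concentration curve.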

[1] = Kit IC50/Fms IC50, BCR-KIT/BaF3 vs BCR-FMS/BaF3 cells
[2] = read-out: BCR/BaF3 (IC50 μM) Fms; BCR-FMS/BaF3 cells
[3] = BCR-FMS/BaF3 cells; read-out: BCR/BaF3 (IC50 μM) Fms

Chain of BCR-FMS/BaF3 cells (P07333 20-972 limits assumed, change not shown): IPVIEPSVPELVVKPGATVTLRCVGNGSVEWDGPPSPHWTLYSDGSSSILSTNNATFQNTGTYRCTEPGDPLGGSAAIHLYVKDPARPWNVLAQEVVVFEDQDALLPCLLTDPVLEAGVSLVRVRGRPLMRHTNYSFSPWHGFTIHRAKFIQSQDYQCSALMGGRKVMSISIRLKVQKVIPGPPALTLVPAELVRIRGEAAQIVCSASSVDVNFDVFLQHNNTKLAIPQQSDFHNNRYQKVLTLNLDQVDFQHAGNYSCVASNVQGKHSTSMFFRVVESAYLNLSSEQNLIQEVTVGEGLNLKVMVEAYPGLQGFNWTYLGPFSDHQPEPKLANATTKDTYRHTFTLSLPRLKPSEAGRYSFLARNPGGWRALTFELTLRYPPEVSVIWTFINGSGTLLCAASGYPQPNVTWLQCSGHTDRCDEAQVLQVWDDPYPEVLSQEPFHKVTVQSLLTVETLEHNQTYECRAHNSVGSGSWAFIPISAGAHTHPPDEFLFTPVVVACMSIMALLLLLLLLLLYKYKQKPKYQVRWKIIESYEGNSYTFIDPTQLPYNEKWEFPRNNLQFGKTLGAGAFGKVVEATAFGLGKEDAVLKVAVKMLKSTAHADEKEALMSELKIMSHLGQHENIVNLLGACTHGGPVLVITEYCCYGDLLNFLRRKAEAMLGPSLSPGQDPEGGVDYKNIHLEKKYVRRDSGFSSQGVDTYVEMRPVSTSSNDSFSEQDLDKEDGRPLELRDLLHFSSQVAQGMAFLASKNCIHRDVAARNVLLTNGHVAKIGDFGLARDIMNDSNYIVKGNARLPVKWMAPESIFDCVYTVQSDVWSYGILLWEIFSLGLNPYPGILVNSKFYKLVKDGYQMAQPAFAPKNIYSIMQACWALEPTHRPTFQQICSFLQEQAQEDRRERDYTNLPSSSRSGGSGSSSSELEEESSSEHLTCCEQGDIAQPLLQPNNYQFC

Structure (SMILES)	BCR/BaF3 selectivity (Kit IC50/Fms IC50) (BCR-FMS/BaF3 cells; [1])	IC50 (BCR-FMS/BaF3 cells; [2])	IC50 (BCR-KIT/BaF3 cells)	IC50 (BCR-FMS/BaF3 cells; [3])	IC50 (BCR-FMS/BaF3 cells; read-out: Cell based (IC50 μM) BCR/BaF3 (Fms); BCR-FMS/BaF3 cells, 3 days)
Cc1cnc2[nH]cc(Cc3ccc(NCc4ccc(Cl)nc4)nc3F)c2c1 [Compound P-2088, (6-Chloro-pyridin-3-ylmethyl)-[6-fluoro-5-(5-methyl-1H-pyrrolo[2,3-b]pyridin-3-ylmethyl)-pyridin-2-yl]-amine]	>20	< 0.1 µM	> 0.1 µM	–	–
COc1ccc(CNc2ccc(Cc3c[nH]c4ncc(C)cc34)c(F)n2)c(OC)n1 [Compound P-2097, (2,6-Dimethoxy-pyridin-3-ylmethyl)-[6-fluoro-5-(5-methyl-1H-pyrrolo[2,3-b]pyridin-3-ylmethyl)-pyridin-2-yl]-amine]	>20	< 0.1 µM	> 0.1 µM	–	–
Cc1cnc2[nH]cc(Cc3ccc(NCc4cccnc4F)nc3F)c2c1 [Compound P-2103, [6-Fluoro-5-(5-methyl-1H-pyrrolo[2,3-b]pyridin-3-ylmethyl)-pyridin-2-yl]-(2-fluoro-pyridin-3-ylmethyl)-amine]	<20	< 0.1 µM	> 0.1 µM	–	–
Cc1cnc2[nH]cc(Cc3ccc(NCc4ccnc(F)c4)nc3F)c2c1 [Compound P-2118, [6-Fluoro-5-(5-methyl-1H-pyrrolo[2,3-b]pyridin-3-ylmethyl)-pyridin-2-yl]-(2-fluoro-pyridin-4-ylmethyl)-amine]	>20	< 0.1 µM	> 0.1 µM	–	–
Cc1ccc(CNc2ccc(Cc3c[nH]c4ncc(C)cc34)c(F)n2)nc1 [Compound P-2131, [6-Fluoro-5-(5-methyl-1H-pyrrolo[2,3-b]pyridin-3-ylmethyl)-pyridin-2-yl]-(5-methyl-pyridin-2-ylmethyl)-amine]	<20	–	> 0.1 µM	< 0.1 µM	–
COc1ncccc1CNc1ncc(Cc2c[nH]c3ncc(C)cc23)cn1 [Compound P-2139, (2-Methoxy-pyridin-3-ylmethyl)-[5-(5-methyl-1H-pyrrolo[2,3-b]pyridin-3-ylmethyl)-pyrimidin-2-yl]-amine]	<20	> 0.1 µM	> 0.1 µM	–	–
Cc1cnc2[nH]cc(Cc3cnc(NCc4ccc(C(F)(F)F)nc4)c(F)c3)c2c1 [Compound P-2146, [3-Fluoro-5-(5-methyl-1H-pyrrolo[2,3-b]pyridin-3-ylmethyl)-pyridin-2-yl]-(6-trifluoromethyl-pyridin-3-ylmethyl)-amine]	<20	< 0.1 µM	> 0.1 µM	–	–
COc1cnc2[nH]cc(Cc3cnc(NCc4ccc(C(F)(F)F)nc4)c(F)c3)c2c1 [Compound P-2147, [3-Fluoro-5-(5-methoxy-1H-pyrrolo[2,3-b]pyridin-3-ylmethyl)-pyridin-2-yl]-(6-trifluoromethyl-pyridin-3-ylmethyl)-amine]	<20	< 0.1 µM	< 0.1 µM	–	–
Cc1cnc2[nH]cc(Cc3cnc(NCc4cccnc4OC4CCCC4)nc3)c2c1 [Compound P-2148, (2-Cyclopentyloxy-pyridin-3-ylmethyl)-[5-(5-methyl-1H-pyrrolo[2,3-b]pyridin-3-ylmethyl)-pyrimidin-2-yl]-amine]	<20	–	> 0.1 µM	< 0.1 µM	–
COc1ccc(CNc2ncc(Cc3c[nH]c4ncc(Cl)cc34)s2)cn1 [Compound P-2154, [5-(5-Chloro-1H-pyrrolo[2,3-b]pyridin-3-ylmethyl)-thiazol-2-yl]-(6-methoxy-pyridin-3-ylmethyl)-amine]	<20	–	> 0.1 µM	< 0.1 µM	–
Cn1cc(F)cc(CNc2ncc(Cc3c[nH]c4ncc(Cl)cc34)cn2)c1=O [Compound P-2157, 3-{[5-(5-Chloro-1H-pyrrolo[2,3-b]pyridin-3-ylmethyl)-pyrimidin-2-ylamino]-methyl}-5-fluoro-1-methyl-1H-pyridin-2-one]	>20	< 0.1 µM	> 0.1 µM	–	–
COc1cccc(CNc2ncc(Cc3c[nH]c4ncc(Cl)cc34)s2)n1 [Compound P-2163, [5-(5-Chloro-1H-pyrrolo[2,3-b]pyridin-3-ylmethyl)-thiazol-2-yl]-(6-methoxy-pyridin-2-ylmethyl)-amine]	<20	–	> 0.1 µM	< 0.1 µM	–
COc1ncc(CNc2ccc(Cc3c[nH]c4ncc(Cl)cc34)c(F)n2)cc1F [Compound P-2165, [5-(5-Chloro-1H-pyrrolo[2,3-b]pyridin-3-ylmethyl)-6-fluoro-pyridin-2-yl]-(5-fluoro-6-methoxy-pyridin-3-ylmethyl)-amine]	>20	< 0.1 µM	> 0.1 µM	–	< 0.1 µM
Fc1cc(Cc2c[nH]c3ncc(Cl)cc23)cnc1NCc1ccc(C(F)(F)F)nc1 [Compound P-2172, [5-(5-Chloro-1H-pyrrolo[2,3-b]pyridin-3-ylmethyl)-3-fluoro-pyridin-2-yl]-(6-trifluoromethyl-pyridin-3-ylmethyl)-amine]	<20	–	< 0.1 µM	< 0.1 µM	–
Fc1cncc(CNc2ncc(Cc3c[nH]c4ncc(Cl)cc34)cn2)c1 [Compound P-2176, [5-(5-Chloro-1H-pyrrolo[2,3-b]pyridin-3-ylmethyl)-pyrimidin-2-yl]-(5-fluoro-pyridin-3-ylmethyl)-amine]	>20	< 0.1 µM	> 0.1 µM	–	–
CCS(=O)(=O)Nc1ccccc1CNc1ccc(Cc2c[nH]c3ncc(C)cc23)c(F)n1 [Compound P-2198, Ethanesulfonic acid (2-{[6-fluoro-5-(5-methyl-1H-pyrrolo[2,3-b]pyridin-3-ylmethyl)-pyridin-2-ylamino]-methyl}-phenyl)-amide]	<20	< 0.1 µM	> 0.1 µM	–	–
CCS(=O)(=O)Nc1cc(F)cc(CNc2ccc(Cc3c[nH]c4ncc(C)cc34)c(F)n2)c1 [Compound P-2202, Ethanesulfonic acid (3-fluoro-5-{[6-fluoro-5-(5-methyl-1H-pyrrolo[2,3-b]pyridin-3-ylmethyl)-pyridin-2-ylamino]-methyl}-phenyl)-amide]	<20	–	> 0.1 µM	< 0.1 µM	–
